Test results published in US11414424B2, “Cardiac sarcomere inhibitors” (Cytokinetics, Inc., priority 2018, dated 2022).

Tested on: bovine cardiac myofibrils
Experiment: Myofibril assay: PK/LDH-coupled steady-state ATPase activity of skinned bovine cardiac myofibrils
Format: biochemical
Conditions: Ca2+ activating to 75% of maximal rate
Description: To evaluate the effect of compounds on the ATPase activity of full-length cardiac myosin in the context of the native sarcomere, skinned myofibril assays were performed. Bovine cardiac myofibrils were obtained by homogenizing bovine cardiac left ventricular tissue in the presence of a detergent such as triton X-100. Such treatment removes membranes and a majority of the soluble cytoplasmic proteins but leaves intact the cardiac sarcomeric acto-myosin apparatus. Myofibril preparations retain the ability to hydrolyze ATP in a Ca^2+ regulated manner. ATPase activities of such myofibril preparations in the presence and absence of compounds were assayed at Ca^2+ concentrations activating to a defined fraction of the maximal rate (i.e., […], 75%). Small molecule agents were assessed for their ability to inhibit the steady-state ATPase activity of bovine cardiac myofibrils using pyruvate kinase and lactate dehydrogenase (PK/LDH)-coupled enzyme system. This assay regenerates myosin-produced ADP into ATP by oxidizing NADH, producing an absorbance change at 340 nm. Prior to testing small molecule agents, the bovine cardiac myofibrils were assessed for their calcium responsiveness and the calcium concentration that achieves either a 50% (pCa50) or 75% (pCa75) activation of the myofibril system was chosen as the final condition for assessing the inhibitory activity of the small molecule agents. All enzymatic activity was measured in a buffered solution containing 12 mM PIPES (piperazine-N,N′-bis(2-ethanesulfonic acid), 2 mM magnesium chloride at pH 6.8 (PM 12 buffer). Final assay conditions were 1 mg/mL of bovine cardiac myofibrils, 4 U/mL pyruvate kinase, 6 U/mL lactate dehydrogenase, 50 μM ATP, 0.1 mg/mL BSA (bovine serum albumin), 10 ppm antifoam, 1 mM DTT, 0.5 mM NADH, 1.5 mM PEP, 0.6 mM EGTA, and an amount of CaCl2 sufficient to achieve either 50% or 75% activation of the myofibril ATPase activity. Results for compounds tested are provided in Table A. Compounds tested were prepared in accordance with the synthetic procedures described herein.

Row | Structure (SMILES) | CDMF75 IC15
1 | CC(C)N1CC(=O)N(Cc2ccc(Cl)cc2)C2(CN(c3ncccn3)C2)C1=O [Compound 11, 5-(4-chlorobenzyl)-8-isopropyl-2-(pyrimidin-2-yl)-2,5,8-triazaspiro-[3.5]nonane-6,9-dione] | 17.4 µM
2 | CC(C)N1CC(=O)N(Cc2ccc(Cl)cc2)C2(CN(c3cnccn3)C2)C1=O [Compound 12, 5-(4-chlorobenzyl)-8-isopropyl-2-(pyrazin-2-yl)-2,5,8-triazaspiro-[3.5]nonane-6,9-dione] | 6.6 µM
3 | Cc1ncccc1N1CC2(C1)C(=O)N(C(C)C)CC(=O)N2Cc1ccc(Cl)cc1 [Compound 13, 5-(4-chlorobenzyl)-8-isopropyl-2-(2-methyl-pyridin-3-yl)-2,5,8-triazaspiro[3.5]nonane-6,9-dione] | 7.1 µM
4 | Cc1ccc(N2CC3(C2)C(=O)N(C(C)C)CC(=O)N3Cc2ccc(Cl)cc2)cn1 [Compound 14, 5-(4-chlorobenzyl)-8-isopropyl-2-(6-methyl-pyridin-3-yl)-2,5,8-triazaspiro[3.5]nonane-6,9-dione] | 6.0 µM
5 | Cc1ccnc(N2CC3(C2)C(=O)N(C(C)C)CC(=O)N3Cc2ccc(Cl)cc2)c1 [Compound 15, 5-(4-chlorobenzyl)-8-isopropyl-2-(4-methyl-pyridin-2-yl)-2,5,8-triazaspiro[3.5]nonane-6,9-dione] | 2.7 µM
6 | Cc1cncc(N2CC3(C2)C(=O)N(C(C)C)CC(=O)N3Cc2ccc(Cl)cc2)c1 [Compound 16, 5-(4-chlorobenzyl)-8-isopropyl-2-(5-methyl-pyridin-3-yl)-2,5,8-triazaspiro[3.5]nonane-6,9-dione] | 2.7 µM
7 | CC(C)N1CC(=O)N(Cc2ccc(Cl)cc2)C2(CN(c3ccc(F)cn3)C2)C1=O [Compound 17, 5-(4-chlorobenzyl)-2-(5-fluoropyridin-2-yl)-8-isopropyl-2,5,8-triazaspiro[3.5]nonane-6,9-dione] | 1.7 µM
8 | CC(C)N1CC(=O)N(Cc2ccc(Cl)cc2)C2(CN(c3cncc(F)c3)C2)C1=O [Compound 18, 5-(4-chlorobenzyl)-2-(5-fluoropyridin-3-yl)-8-isopropyl-2,5,8-triazaspiro[3.5]nonane-6,9-dione] | 3.1 µM
9 | CC(C)N1CC(=O)N(Cc2ccc(Cl)cc2)C2(CN(c3ccncn3)C2)C1=O [Compound 19, 5-(4-chlorobenzyl)-8-isopropyl-2-(pyrimidin-4-yl)-2,5,8-triazaspiro-[3.5]nonane-6,9-dione] | 5.7 µM
10 | CC(C)N1C(=O)C2(CN(c3ccc(F)cc3)C2)N(Cc2ccc(Cl)cc2)C(=O)C1C (centres unmarked) [Compound 20, 5-(4-chlorobenzyl)-2-(4-fluorophenyl)-8-isopropyl-7-methyl-2,5,8-triazaspiro[3.5]nonane-6,9-dione] | 7.5 µM
11 | CC(C)N1CC(=O)N(Cc2ccc(Cl)cc2)C2(CN(c3cnn(C)c3)C2)C1=O [Compound 21, 5-(4-chlorobenzyl)-8-isopropyl-2-(1-methyl-1H-pyrazol-4-yl)-2,5,8-triazaspiro[3.5]nonane-6,9-dione] | 2.6 µM
12 | CC(C)N1CC(=O)N(Cc2ccc(Cl)cc2)C2(CN(c3nccs3)C2)C1=O [Compound 22, 5-(4-chlorobenzyl)-8-isopropyl-2-(thiazol-2-yl)-2,5,8-triazaspiro[3.5]-nonane-6,9-dione] | 4.1 µM
13 | CC(C)N1CC(=O)N(Cc2ccc(Cl)cc2)C2(CN(c3cccnn3)C2)C1=O [Compound 23, 5-(4-chlorobenzyl)-8-isopropyl-2-(pyridazin-3-yl)-2,5,8-triazaspiro[3.5]-nonane-6,9-dione] | 2.2 µM
14 | CC(C)N1CC(=O)N(Cc2ccc(Cl)cc2)C2(CN(c3ccnnc3)C2)C1=O [Compound 24, 5-(4-chlorobenzyl)-8-isopropyl-2-(pyridazin-4-yl)-2,5,8-triazaspiro[3.5]-nonane-6,9-dione] | 5.7 µM
15 | CC(C)N1CC(=O)N(Cc2ccc(Cl)cc2)C2(CN(c3cncnc3)C2)C1=O [Compound 25, 5-(4-chlorobenzyl)-8-isopropyl-2-(pyrimidin-5-yl)-2,5,8-triazaspiro-[3.5]nonane-6,9-dione] | 8.8 µM
16 | Cc1cc(N2CC3(C2)C(=O)N(C(C)C)CC(=O)N3Cc2ccc(Cl)cc2)n[nH]1 [Compound 26, 5-(4-chlorobenzyl)-8-isopropyl-2-(5-methyl-1H-pyrazol-3-yl)-2,5,8-triazaspiro[3.5]nonane-6,9-dione] | 3.0 µM

Row | Structure (SMILES) | CDMF75 IC15
17 | CC(C)N1CC(=O)N(Cc2ccc(Cl)cc2)C2(CN(c3ccnc(C#N)c3)C2)C1=O [Compound 27, 4-(5-(4-chlorobenzyl)-8-isopropyl-6,9-dioxo-2,5,8-triazaspiro[3.5]nonan-2-yl)picolinonitrile] | 8.6 µM
18 | CC(C)N1CC(=O)N(Cc2ccc(Cl)cc2)C2(CN(c3ccnc(O)c3)C2)C1=O [Compound 28, 5-(4-chlorobenzyl)-2-(2-hydroxypyridin-4-yl)-8-isopropyl-2,5,8-triazaspiro[3.5]nonane-6,9-dione] | 3.1 µM
19 | CC(C)N1CC(=O)N(Cc2ccc(Cl)cc2)C2(CN(c3ccnc(C(F)F)c3)C2)C1=O [Compound 29, 5-(4-chlorobenzyl)-2-(2-(difluoromethyl)pyridin-4-yl)-8-isopropyl-2,5,8-triazaspiro[3.5]nonane-6,9-dione] | 5.6 µM
20 | Cc1ccc(CN2C(=O)CN(C(C)C)C(=O)C23CN(c2ccnc(C)c2)C3)cc1 [Compound 30, 8-isopropyl-5-(4-methylbenzyl)-2-(2-methylpyridin-4-yl)-2,5,8-triazaspiro[3.5]-nonane-6,9-dione] | 21.1 µM
21 | Cc1cc(N2CC3(C2)C(=O)N(C(C)C)CC(=O)N3Cc2ccc(C(F)(F)F)cc2)ccn1 [Compound 31, 8-isopropyl-2-(2-methylpyridin-4-yl)-5-(4-(trifluoromethyl)benzyl)-2,5,8-triazaspiro[3.5]-nonane-6,9-dione] | 2.7 µM
22 | CC(C)N1CC(=O)N(Cc2ccc(Cl)cc2)C2(CN(c3cscn3)C2)C1=O [Compound 32, 5-(4-chlorobenzyl)-8-isopropyl-2-(thiazol-4-yl)-2,5,8-triazaspiro[3.5]-nonane-6,9-dione] | 9.6 µM
23 | CC(C)N1CC(=O)N(Cc2ccc(Cl)cc2)C2(CN(c3cncs3)C2)C1=O [Compound 33, 5-(4-chlorobenzyl)-8-isopropyl-2-(thiazol-5-yl)-2,5,8-triazaspiro[3.5]-nonane-6,9-dione] | 5.4 µM
24 | CC(C)N1CC(=O)N(Cc2ccc(Cl)cc2)C2(CN(c3ccnc(C4CC4)c3)C2)C1=O [Compound 34, 5-(4-chlorobenzyl)-2-(2-cyclopropylpyridin-4-yl)-8-isopropyl-2,5,8-triazaspiro[3.5]nonane-6,9-dione] | 10.4 µM
25 | COC(=O)c1cc(N2CC3(C2)C(=O)N(C(C)C)CC(=O)N3Cc2ccc(Cl)cc2)ccn1 [Compound 35, methyl 4-(5-(4-chloro-benzyl)-8-isopropyl-6,9-dioxo-2,5,8-triazaspiro[3.5]nonan-2-yl)picolinate] | 14.6 µM
26 | CC(C)N1CC(=O)N(Cc2ccc(Cl)cc2)C2(CN(c3ccnc(C(=O)O)c3)C2)C1=O [Compound 36, 4-(5-(4-chlorobenzyl)-8-isopropyl-6,9-dioxo-2,5,8-triazaspiro[3.5]nonan-2-yl)picolinic acid] | 24.5 µM
27 | CC(C)N1CC(=O)N(Cc2ccc(Cl)cc2)C2(CN(c3ccnc(C(N)=O)c3)C2)C1=O [Compound 37, 4-(5-(4-chlorobenzyl)-8-isopropyl-6,9-dioxo-2,5,8-triazaspiro[3.5]nonan-2-yl)picolinamide] | 6.0 µM
28 | CNC(=O)c1cc(N2CC3(C2)C(=O)N(C(C)C)CC(=O)N3Cc2ccc(Cl)cc2)ccn1 [Compound 38, 4-(5-(4-chlorobenzyl)-8-isopropyl-6,9-dioxo-2,5,8-triazaspiro-[3.5]nonan-2-yl)-N-methylpicolinamide] | 12.4 µM
29 | CC(C)N1CC(=O)N(Cc2ccc(Cl)cc2)C2(CN(c3nc(C(F)(F)F)cs3)C2)C1=O [Compound 39, 5-(4-chlorobenzyl)-8-isopropyl-2-(4-(trifluoromethyl)thiazol-2-yl)-2,5,8-triazaspiro-[3.5]nonane-6,9-dione] | 3.9 µM
30 | CC(C)N1CC(=O)N(Cc2ccc(Cl)cc2)C2(CN(c3nc(C(N)=O)cs3)C2)C1=O [Compound 40, 2-(5-(4-chlorobenzyl)-8-isopropyl-6,9-dioxo-2,5,8-triazaspiro[3.5]nonan-2-yl)thiazole-4-carboxamide] | 7.2 µM
31 | CC(C)N1CC(=O)N(Cc2ccc(Cl)cc2)C2(CN(c3cn[nH]c3)C2)C1=O [Compound 41, 5-(4-chlorobenzyl)-8-isopropyl-2-(1H-pyrazol-4-yl)-2,5,8-triazaspiro-[3.5]nonane-6,9-dione] | 7.0 µM
32 | CC(C)N1CC(=O)N(Cc2ccc(Cl)cc2)C2(CN(c3ccn(C)c(=O)c3)C2)C1=O [Compound 42, 5-(4-chlorobenzyl)-8-isopropyl-2-(1-methyl-2-oxo-1,2-dihydropyridin-4-yl)-2,5,8-triazaspiro-[3.5]nonane-6,9-dione] | 5.4 µM
